From patent EP4678638A1, “NEW E3 UBIQUITIN LIGASE LIGAND, PROTEIN DEGRADATION AGENT AND USE THEREOF” (priority 2023, dated 2024)

Assays:
CCRF-CEM = test: CCK-8 proliferation, CCRF-CEM; assay type: cell-based, Human; conditions: Homo sapiens, CCRF-CEM; CCK-8; 96 hours; read-out: Inhibitory activity (IC50) on tumor cell proliferation, CCRF-CEM
In short: (§1)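 Cells seeded, then after 24 h treated with 10 concentrations (top 10 µM, 5-fold serial dilution) for a line-specific time at 37°C, 5% CO2. Viability read by CCK-8; IC50 fitted from growth-inhibition curves.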

FAK = target: T1, FAK (Homo sapiens, UniProt Q05397); test: Western blot degradation of FAK; assay type: cell-based; conditions: Table D7
T1 construct: evaluate the effects of the compounds of the present disclosure on the expression of target proteins in cells; endogenous in cells
Experimental: Conventional Western blot assay was performed to evaluate the effects of the compounds of the present disclosure on the expression of target proteins in cells.
(1) Cell Seeding and Protein Harvesting: The selected cells were processed according to the cell seeding procedure and protein harvesting procedure in Table III-2. Table III-2 Cell Seeding and Protein Harvesting Procedures
(2) To the collected supernatant, 5X SDS sample loading buffer was added, followed by denaturation at 95°C for 5 minutes. The denatured samples were then separated by SDS-PAGE electrophoresis on a polyacrylamide gel. Proteins were transferred to a nitrocellulose membrane (0.45 µm NC membrane), blocked with blocking buffer at room temperature for 1 hour, and subjected to antibody incubation and development procedures according to the antibody manufacturer's instructions (Cell Signaling Technology).
Half-Maximal Degradation Concentration value (the drug concentration required for degrading proteins by 50%, abbreviated as DC50) reads method: comparing the grayscale values of Western blot bands from drug-treated samples with those from blank DMSO-treated controls, and identifying the drug concentration range at which the grayscale value is half that of the DMSO-treated control bands.
DC50 values can be calculated using ImageJ software to measure grayscale values of Western blot bands from drug-treated samples. The concentration-response curve is fitted to estimate the drug concentration corresponding to half the grayscale value.
Target protein remaining (%) refers to the percentage of target protein remaining in hPBMC cells after treatment with protein degrader compounds.
Calculation method for target protein remaining (%): Use ImageJ software to measure grayscale values of Western blot bands from drug (protein degrader)-treated samples. The grayscale value of drug-treated bands is divided by that of internal control protein bands, and the resulting quotient is normalized to obtain the relative percentage of remaining target protein after protein degrader treatment.
Target protein degradation rate (%) = 100% - target protein remaining (%).

SR = test: CCK-8 proliferation, SR; assay type: cell-based, Human; conditions: Homo sapiens, SR; CCK-8; 72 hours; read-out: Inhibitory activity (IC50) on tumor cell proliferation, SR
In short: as §1

MV-4-11 = test: CCK-8 proliferation, MV-4-11; assay type: cell-based, Human; conditions: Homo sapiens, MV4-11; CCK-8; 72 or 96 hours; read-out: Inhibitory activity (IC50) on tumor cell proliferation, MV-4-11
Experimental: (§2) The tumor cells used herein were cultured in a cell culture medium listed in table A1 at 37°C in an incubator with 5% CO2. Prior to experimentation, all cell lines used were correctly identified by STR profiling, and tested negative for mycoplasma contamination using a mycoplasma detection kit through routine screenings. Table A1. Tumor cells and cell culture medium used in the present disclosure
(§3) IC50 values of the compounds of the present disclosure (including the compounds in Table 1, and compounds of examples) were measured using the Meilun Cell Counting Kit-8 kit from Dalian Meilun Biotech Co., Ltd. Assay details are as follows: tumor cells were seeded in a 96-well plate at a density listed in Table A2. After 24h, 100 µL of the inoculated cells were treated with 0.5µL of the compounds of the present disclosure (including the compounds in Tables 1 and 2, and compounds of examples) at 10 different successively decreasing concentrations (starting at the highest concentration of 10µM; 5-fold serial dilutions). After the cells were treated with the compounds of the present disclosure for a period of time, the cell viability detection reagent was added to the culture medium for cell viability assessment according to the instructions provided with the CCK-8 kit. […] The growth inhibition of the compounds of the present disclosure on cells was plotted by Prism Graphpad software, and the IC50 values of the compounds of the present disclosure were calculated therefrom. […] Seeding protocol and treatment time for tumor cells

SW620 = test: CCK-8 proliferation, SW620; assay type: cell-based; conditions: Homo sapiens, SW-620; CCK-8; 96 hours; read-out: Inhibitory activity (IC50) on tumor cell proliferation, SW620
Experimental: as §2, §3

[1] = target: T2, human Cereblon WT GST-tagged protein (Homo sapiens, UniProt Q96SW2); test: CRBN binding, HTRF (CEREBLON BINDING kit); conditions: Table II-2, CRBN binding screening, HTRF; for inhibition at 0.5 µM: read-out: Inhibition rate (%) at 0.5µM; for inhibition at 2 µM: read-out: Inhibition rate (%) at 2 µM
T2 construct: purchased CISBIO 64BDCRBNPEH
In short: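 After 3 h at room temperature, emission at 665 and 620 nm was measured in a homogeneous time-resolved fluorescence format. Compounds competed with a Thalidomide-Re probe for GST-tagged wild-type human CRBN, which was labelled with a Eu anti-GST antibody.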

H1975 = test: CCK-8 proliferation, NCI-H1975 (H1975); assay type: cell-based, Human; conditions: Homo sapiens, NCI-H1975; CCK-8; 96 hours; read-out: Inhibitory activity (IC50) on tumor cell proliferation, H1975
In short: as §1

Jurkat = test: CCK-8 proliferation, Jurkat; assay type: cell-based, Human; conditions: Homo sapiens, Jurkat; CCK-8; 96 hours; read-out: Inhibitory activity (IC50) on tumor cell proliferation, Jurkat
Experimental: as §2, §3

PC-9 = test: CCK-8 proliferation, PC-9; assay type: cell-based, Human; conditions: Homo sapiens, PC-9; CCK-8; 96 hours; read-out: Inhibitory activity (IC50) on tumor cell proliferation, PC-9
Experimental: as §2, §3

H2228 = test: CCK-8 proliferation, NCI-H2228 (H2228); assay type: cell-based; conditions: Homo sapiens, NCI-H2228; CCK-8; 96 hours; read-out: Inhibitory activity (IC50) on tumor cell proliferation, H2228
In short: as §1

T1 sequence (Q05397 whole entry, species assumed): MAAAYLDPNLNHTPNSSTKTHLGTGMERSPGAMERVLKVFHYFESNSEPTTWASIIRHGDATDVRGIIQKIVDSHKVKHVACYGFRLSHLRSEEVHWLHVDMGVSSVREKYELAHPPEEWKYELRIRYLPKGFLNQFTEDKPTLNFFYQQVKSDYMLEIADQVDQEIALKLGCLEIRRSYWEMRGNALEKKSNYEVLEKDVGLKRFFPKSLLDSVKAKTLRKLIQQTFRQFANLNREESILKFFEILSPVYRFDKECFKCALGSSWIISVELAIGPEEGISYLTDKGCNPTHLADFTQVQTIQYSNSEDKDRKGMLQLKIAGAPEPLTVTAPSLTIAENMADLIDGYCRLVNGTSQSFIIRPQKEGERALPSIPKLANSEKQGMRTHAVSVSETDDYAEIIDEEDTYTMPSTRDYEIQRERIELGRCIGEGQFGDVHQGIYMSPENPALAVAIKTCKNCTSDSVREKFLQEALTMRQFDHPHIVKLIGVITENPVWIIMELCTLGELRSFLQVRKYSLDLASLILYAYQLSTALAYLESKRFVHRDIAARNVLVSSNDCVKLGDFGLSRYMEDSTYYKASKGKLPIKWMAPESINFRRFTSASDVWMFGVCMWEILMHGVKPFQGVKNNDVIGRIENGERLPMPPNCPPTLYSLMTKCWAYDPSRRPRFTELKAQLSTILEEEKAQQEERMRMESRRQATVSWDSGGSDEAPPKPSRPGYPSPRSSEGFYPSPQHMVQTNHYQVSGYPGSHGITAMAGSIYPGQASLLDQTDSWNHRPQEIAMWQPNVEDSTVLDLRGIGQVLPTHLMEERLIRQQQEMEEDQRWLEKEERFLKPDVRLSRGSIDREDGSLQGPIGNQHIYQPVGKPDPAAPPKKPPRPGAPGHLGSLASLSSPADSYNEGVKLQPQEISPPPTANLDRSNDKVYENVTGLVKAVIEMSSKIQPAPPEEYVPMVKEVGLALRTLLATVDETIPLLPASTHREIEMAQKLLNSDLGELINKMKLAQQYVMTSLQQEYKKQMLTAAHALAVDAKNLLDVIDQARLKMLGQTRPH
T2 sequence (Q96SW2 whole entry): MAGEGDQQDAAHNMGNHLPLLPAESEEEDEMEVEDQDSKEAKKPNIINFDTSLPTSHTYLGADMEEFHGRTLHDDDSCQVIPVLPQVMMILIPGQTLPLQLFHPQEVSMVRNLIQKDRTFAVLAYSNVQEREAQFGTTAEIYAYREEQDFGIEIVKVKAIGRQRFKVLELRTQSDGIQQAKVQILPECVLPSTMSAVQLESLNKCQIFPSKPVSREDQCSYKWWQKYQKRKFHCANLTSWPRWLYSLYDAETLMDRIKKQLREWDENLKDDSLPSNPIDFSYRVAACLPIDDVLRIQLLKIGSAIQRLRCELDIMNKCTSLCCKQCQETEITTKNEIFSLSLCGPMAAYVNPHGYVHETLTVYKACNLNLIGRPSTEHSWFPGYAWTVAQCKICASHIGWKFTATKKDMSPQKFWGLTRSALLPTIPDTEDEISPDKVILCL

| SMILES | Degradation of substrate protein FAK (substrate protein remaining %) (FAK) | IC50 (SW620) | inhibition at 0.5 µM [1] | inhibition at 2 µM [1] | other results |
| --- | --- | --- | --- | --- | --- |
| CNC(=O)c1ccccc1Nc1cc(Nc2ccc(N3CCC(N4CCN(Cc5ccc(C6CCC(=O)NC6=O)cc5)CC4)CC3)cc2OC)ncc1C(F)(F)F (centres unmarked) [GT-03599, 2-((2-((4-(4-(4-(4-(2,6-dioxopiperidin-3-yl)benzyl)piperazin-1-yl)piperidin-1-yl)-2-methoxyphenyl)amino)-5-(trifluoromethyl)pyridin-4-yl)amino)-N-methylbenzamide] | A (A is defined as 0% ≤ substrate protein remaining % ≤ 80%) |  |  |  | IC50 (CCRF-CEM): 100 to 500 nM |
| CNC(=O)c1ccccc1Nc1cc(Nc2ccc(N3CCN(Cc4ccc(C5CCC(=O)NC5=O)cc4)CC3)cc2OC)ncc1C(F)(F)F (centres unmarked) [GT-03715, 2-((2-((4-(4-(4-(2,6-dioxopiperidin-3-yl)benzyl)piperazin-1-yl)-2-methoxyphenyl)amino)-5-(trifluoromethyl)pyridin-4-yl)amino)-N-methylbenzamide] | A (A is defined as 0% ≤ substrate protein remaining % ≤ 80%) | 500 to 1000 nM | 10 to 20% | 60 to 80% | IC50 (SR): 100 to 500 nM; IC50 (CCRF-CEM): 500 to 1000 nM; IC50 (MV-4-11): 100 to 500 nM |
| CNC(=O)c1ccccc1Nc1cc(Nc2ccc(N3CCN(Cc4ccc(C5CCC(=O)NC5=O)c(F)c4)CC3)cc2OC)ncc1C(F)(F)F (centres unmarked) [GT-03717, 2-((2-((4-(4-(4-(2,6-dioxopiperidin-3-yl)-3-fluorobenzyl)piperazin-1-yl)-2-methoxyphenyl)amino)-5-(trifluoromethyl)pyridin-4-yl)amino)-N-methylbenzamide] | A (A is defined as 0% ≤ substrate protein remaining % ≤ 80%) | 500 to 1000 nM | 30 to 40% | 40 to 53% | IC50 (SR): 100 to 500 nM; IC50 (MV-4-11): 100 to 500 nM; IC50 (H1975): 500 to 1000 nM |
| CNC(=O)c1ccccc1Nc1cc(Nc2cc(C)c(N3CCN(Cc4ccc(C5CCC(=O)NC5=O)cc4)CC3)cc2OC(C)C)ncc1C(F)(F)F (centres unmarked) [GT-03946, 2-((2-((4-(4-(4-(2,6-dioxopiperidin-3-yl)benzyl)piperazin-1-yl)-2-isopropoxy-5-methylphenyl)amino)-5-(trifluoromethyl)pyridin-4-yl)amino)-N-methylbenzamide] | A (A is defined as 0% ≤ substrate protein remaining % ≤ 80%) |  | 30 to 40% | 53 to 60% |  |
| COc1cc(C(=O)NC2CCN(Cc3ccc(C4CCC(=O)NC4=O)cc3)CC2)c(F)cc1Nc1ncc(C(F)(F)F)c(Oc2cccc3c2C(=O)N(C)C3)n1 (centres unmarked) [GT-04034, N-(1-(4-(2,6-dioxopiperidin-3-yl)benzyl)piperidin-4-yl)-2-fluoro-5-methoxy-4-((4-((2-methyl-3-oxoisoindolin-4-yl)oxy)-5-(trifluoromethyl)pyrimidin-2-yl)amino)benzamide] | A (A is defined as 0% ≤ substrate protein remaining % ≤ 80%) |  | 53 to 60% | 80 to 100% |  |
| COc1cc(C(=O)NC2CCN(Cc3ccc(C4CCC(=O)NC4=O)c(F)c3)CC2)c(F)cc1Nc1ncc(C(F)(F)F)c(Oc2cccc3c2C(=O)N(C)C3)n1 (centres unmarked) [GT-04035, N-(1-(4-(2,6-dioxopiperidin-3-yl)-3-fluorobenzyl)piperidin-4-yl)-2-fluoro-5-methoxy-4-((4-((2-methyl-3-oxoisoindolin-4-yl)oxy)-5-(trifluoromethyl)pyrimidin-2-yl)amino)benzamide] | A (A is defined as 0% ≤ substrate protein remaining % ≤ 80%) |  | 40 to 53% | 80 to 100% | IC50 (Jurkat): 50 to 100 nM |
| CNC(=O)c1ccccc1Nc1cc(Nc2cc(C)c(N3CCC(N(C)Cc4ccc(C5CCC(=O)NC5=O)c(F)c4)CC3)cc2OC(C)C)ncc1C(F)(F)F (centres unmarked) [GT-04095, 2-((2-((4-(4-((4-(2,6-dioxopiperidin-3-yl)-3-fluorobenzyl)(methyl)amino)piperidin-1-yl)-2-isopropoxy-5-methylphenyl)amino)-5-(trifluoromethyl)pyridin-4-yl)amino)-N-methylbenzamide] | A (A is defined as 0% ≤ substrate protein remaining % ≤ 80%) |  | 20 to 30% | 60 to 80% |  |
| NC(=O)c1ncc(N2CCCCC2)nc1Nc1ccc(C2CCN(Cc3ccc(N4CCC(=O)NC4=O)cc3F)CC2)cc1 [GT-04790, 3-((4-(1-(4-(2,4-dioxotetrahydropyrimidin-1(2H)-yl)-2-fluorobenzyl)piperidin-4-yl)phenyl)amino)-5-(piperidin-1-yl)pyrazine-2-carboxamide] |  | 500 to 1000 nM |  |  | IC50 (PC-9): 100 to 500 nM; IC50 (H2228): 100 to 500 nM; IC50 (H1975): 500 to 1000 nM |
| CNC(=O)c1ccccc1Nc1cc(Nc2cc(C)c(C3CCN(Cc4cncc(C5CCC(=O)NC5=O)c4)CC3)cc2OC(C)C)ncc1C(F)(F)F (centres unmarked) [GT-07678, 2-((2-((4-(1-((5-(2,6-dioxopiperidin-3-yl)pyridin-3-yl)methyl)piperidin-4-yl)-2-isopropoxy-5-methylphenyl)amino)-5-(trifluoromethyl)pyridin-4-yl)amino)-N-methylbenzamide] | A (A is defined as 0% ≤ substrate protein remaining % ≤ 80%) |  |  |  |  |
| CNC(=O)c1ccccc1Nc1cc(Nc2cc(C)c(C3CCN(Cc4cnc(N5CCC(=O)NC5=O)cn4)CC3)cc2OC(C)C)ncc1C(F)(F)F [GT-07680, 2-((2-((4-(1-((5-(2,4-dioxotetrahydropyrimidin-1(2H)-yl)pyrazin-2-yl)methyl)piperidin-4-yl)-2-isopropoxy-5-methylphenyl)amino)-5-(trifluoromethyl)pyridin-4-yl)amino)-N-methylbenzamide] | A (A is defined as 0% ≤ substrate protein remaining % ≤ 80%) |  |  |  |  |
